Source: US20100092526A1, “NANOEMULSION THERAPEUTIC COMPOSITIONS AND METHODS OF USING THE SAME” (NanoBio Corporation, priority 2008, published 2010)
Values after ≈ are worked out from the molar mass of the structure shown. Read-outs that look alike come from different tables or passages of the source.

Key:
[1] = system: Escherichia coli; assay: MIC/MBC of nanoemulsions against gram-negative isolates (CLSI, alamar blue); format: cell-based; conditions: Escherichia coli (n = 5); nanoemulsions in the presence of 5 mM EDTA
[2] = system: Burkholderia cenocepacia; assay: MIC/MBC against CF isolates (CLSI, alamar blue); conditions: Burkholderia cenocepacia
[3] = system: Pseudomonas aeruginosa; assay: MIC/MBC of nanoemulsions against gram-negative isolates (CLSI, alamar blue); format: cell-based; conditions: Pseudomonas aeruginosa (n = 5)
[4] = system: Pseudomonas aeruginosa; assay: MIC/MBC against CF isolates (CLSI, alamar blue); conditions: Pseudomonas aeruginosa

Question: Which MIC50 [1] does the source give for `C[C@H]1COc2c(N3CCN(C)CC3)c(F)cc3c(=O)c(C(=O)O)cn1c23` [Levofloxacin] here?
Answer: 0.03 µg/mL

Question: And the MBC ([2]; CF Burkholderia isolate NB21)?
Answer: 2 µg/mL (≈ 5.53 µM)

Question: And the MIC ([2]; CF Burkholderia isolate NB21)?
Answer: 2 µg/mL (≈ 5.53 µM)

Question: And the MBC ([2]; CF Burkholderia isolate NB22)?
Answer: 4 µg/mL (≈ 11.1 µM)

Question: What about the MIC ([2]; CF Burkholderia isolate NB22) of the same compound?
Answer: 1 µg/mL (≈ 2.77 µM)

Question: What about the MBC ([2]; CF Burkholderia isolate NB23) of the same compound?
Answer: > 16 µg/mL

Question: What about the MIC ([2]; CF Burkholderia isolate NB23) of the same compound?
Answer: 8 µg/mL (≈ 22.1 µM)

Question: What about the MBC ([2]; CF Burkholderia isolate NB24) of the same compound?
Answer: 16 µg/mL (≈ 44.3 µM)

Question: What about the MIC ([2]; CF Burkholderia isolate NB24) of the same compound?
Answer: 8 µg/mL (≈ 22.1 µM)

Question: What about the MBC ([2]; CF Burkholderia isolate NB25) of the same compound?
Answer: 8 µg/mL (≈ 22.1 µM)

Question: What about the MIC ([2]; CF Burkholderia isolate NB25) of the same compound?
Answer: 4 µg/mL (≈ 11.1 µM)

Question: And the MBC ([2]; CF Burkholderia isolate NB26)?
Answer: 8 µg/mL (≈ 22.1 µM)

Question: And the MIC ([2]; CF Burkholderia isolate NB26)?
Answer: 8 µg/mL (≈ 22.1 µM)

Question: And the MBC ([2]; CF Burkholderia isolate NB27)?
Answer: 8 µg/mL (≈ 22.1 µM)

Question: And the MIC ([2]; CF Burkholderia isolate NB27)?
Answer: 4 µg/mL (≈ 11.1 µM)

Question: And the MBC ([2]; CF Burkholderia isolate NB28b)?
Answer: 2 µg/mL (≈ 5.53 µM)

Question: What about the MIC ([2]; CF Burkholderia isolate NB28b) of the same compound?
Answer: 1 µg/mL (≈ 2.77 µM)

Question: What about the MBC ([2]; CF Burkholderia isolate NB29) of the same compound?
Answer: 4 µg/mL (≈ 11.1 µM)

Question: What about the MIC ([2]; CF Burkholderia isolate NB29) of the same compound?
Answer: 1 µg/mL (≈ 2.77 µM)

Question: And the MBC ([2]; CF Burkholderia isolate NB30)?
Answer: 1 µg/mL (≈ 2.77 µM)

Question: What about the MIC ([2]; CF Burkholderia isolate NB30) of the same compound?
Answer: 1 µg/mL (≈ 2.77 µM)

Question: And the “% resistant” value [3]?
Answer: 0.0%

Question: And the “% susceptible” value [3]?
Answer: 80.0%

Question: What about the MIC50 ([3]; nanoemulsions in the presence of 5 mM EDTA) of the same compound?
Answer: 1 µg/mL

Question: And the “MIC Range” value ([3]; nanoemulsions in the presence of 5 mM EDTA, in µg/mL)?
Answer: 0.25-4

Question: And the MIC50 [4]?
Answer: 0.5 µg/mL (≈ 1.38 µM)

Question: What about the MIC90 [4] of the same compound?
Answer: 8 µg/mL (≈ 22.1 µM)

Question: What about the MBC ([4]; CF Pseudomonas isolate NB1) of the same compound?
Answer: 1 µg/mL (≈ 2.77 µM)

Question: And the MIC ([4]; CF Pseudomonas isolate NB1)?
Answer: 0.5 µg/mL (≈ 1.38 µM)

Question: And the MBC ([4]; CF Pseudomonas isolate NB2)?
Answer: 0.5 µg/mL (≈ 1.38 µM)

Question: And the MIC ([4]; CF Pseudomonas isolate NB2)?
Answer: 0.5 µg/mL (≈ 1.38 µM)

Question: And the MBC ([4]; CF Pseudomonas isolate NB3)?
Answer: 0.5 µg/mL (≈ 1.38 µM)

Question: What about the MIC ([4]; CF Pseudomonas isolate NB3) of the same compound?
Answer: 0.25 µg/mL (≈ 0.692 µM)

Question: And the MBC ([4]; CF Pseudomonas isolate NB4)?
Answer: 0.5 µg/mL (≈ 1.38 µM)

Question: And the MIC ([4]; CF Pseudomonas isolate NB4)?
Answer: 0.25 µg/mL (≈ 0.692 µM)

Question: What about the MBC ([4]; CF Pseudomonas isolate NB5) of the same compound?
Answer: 1 µg/mL (≈ 2.77 µM)

Question: What about the MIC ([4]; CF Pseudomonas isolate NB5) of the same compound?
Answer: 0.5 µg/mL (≈ 1.38 µM)

Question: And the MBC ([4]; CF Pseudomonas isolate NB6)?
Answer: 1 µg/mL (≈ 2.77 µM)

Question: And the MIC ([4]; CF Pseudomonas isolate NB6)?
Answer: 0.5 µg/mL (≈ 1.38 µM)

Question: And the MBC ([4]; CF Pseudomonas isolate NB7)?
Answer: 1 µg/mL (≈ 2.77 µM)

Question: What about the MIC ([4]; CF Pseudomonas isolate NB7) of the same compound?
Answer: 0.5 µg/mL (≈ 1.38 µM)

Question: What about the MBC ([4]; CF Pseudomonas isolate NB8) of the same compound?
Answer: 0.5 µg/mL (≈ 1.38 µM)

Question: And the MIC ([4]; CF Pseudomonas isolate NB8)?
Answer: 0.5 µg/mL (≈ 1.38 µM)

Question: And the MBC ([4]; CF Pseudomonas isolate NB9)?
Answer: 0.5 µg/mL (≈ 1.38 µM)

Question: And the MIC ([4]; CF Pseudomonas isolate NB9)?
Answer: 0.5 µg/mL (≈ 1.38 µM)

Question: What about the MBC ([4]; CF Pseudomonas isolate NB10) of the same compound?
Answer: 0.5 µg/mL (≈ 1.38 µM)

Question: And the MIC ([4]; CF Pseudomonas isolate NB10)?
Answer: 0.5 µg/mL (≈ 1.38 µM)

Question: And the MBC ([4]; CF Pseudomonas isolate NB11)?
Answer: 16 µg/mL (≈ 44.3 µM)

Question: What about the MIC ([4]; CF Pseudomonas isolate NB11) of the same compound?
Answer: 8 µg/mL (≈ 22.1 µM)

Question: And the MBC ([4]; CF Pseudomonas isolate NB12)?
Answer: 1 µg/mL (≈ 2.77 µM)

Question: What about the MIC ([4]; CF Pseudomonas isolate NB12) of the same compound?
Answer: 0.25 µg/mL (≈ 0.692 µM)

Question: What about the MBC ([4]; CF Pseudomonas isolate NB13) of the same compound?
Answer: 2 µg/mL (≈ 5.53 µM)

Question: And the MIC ([4]; CF Pseudomonas isolate NB13)?
Answer: 0.5 µg/mL (≈ 1.38 µM)

Question: What about the MBC ([4]; CF Pseudomonas isolate NB14) of the same compound?
Answer: > 16 µg/mL

Question: And the MIC ([4]; CF Pseudomonas isolate NB14)?
Answer: 16 µg/mL (≈ 44.3 µM)

Question: And the MBC ([4]; CF Pseudomonas isolate NB15)?
Answer: 4 µg/mL (≈ 11.1 µM)

Question: And the MIC ([4]; CF Pseudomonas isolate NB15)?
Answer: 2 µg/mL (≈ 5.53 µM)

Question: What about the MBC ([4]; CF Pseudomonas isolate NB16) of the same compound?
Answer: 8 µg/mL (≈ 22.1 µM)

Question: What about the MIC ([4]; CF Pseudomonas isolate NB16) of the same compound?
Answer: 2 µg/mL (≈ 5.53 µM)

Question: What about the MBC ([4]; CF Pseudomonas isolate NB17) of the same compound?
Answer: 16 µg/mL (≈ 44.3 µM)

Question: And the MIC ([4]; CF Pseudomonas isolate NB17)?
Answer: 16 µg/mL (≈ 44.3 µM)

Question: What about the MBC ([4]; CF Pseudomonas isolate NB18) of the same compound?
Answer: 8 µg/mL (≈ 22.1 µM)

Question: What about the MIC ([4]; CF Pseudomonas isolate NB18) of the same compound?
Answer: 4 µg/mL (≈ 11.1 µM)

Question: And the MBC ([4]; CF Pseudomonas isolate NB19)?
Answer: 4 µg/mL (≈ 11.1 µM)

Question: And the MIC ([4]; CF Pseudomonas isolate NB19)?
Answer: 2 µg/mL (≈ 5.53 µM)

Question: And the MBC ([4]; CF Pseudomonas isolate NB20)?
Answer: 1 µg/mL (≈ 2.77 µM)

Question: And the MIC ([4]; CF Pseudomonas isolate NB20)?
Answer: 0.5 µg/mL (≈ 1.38 µM)

Question: And the MBC ([4]; read-out: MBC 50, 20 CF Pseudomonas isolates)?
Answer: 1 µg/mL (≈ 2.77 µM)

Question: What about the MBC ([4]; read-out: MBC 50, second MBC 50 line of the summary, Stenotrophomonas, values equal those of the CF Pseudomonas isolates) of the same compound?
Answer: 1 µg/mL (≈ 2.77 µM)

Question: And the MBC ([4]; read-out: MBC 90, 20 CF Pseudomonas isolates)?
Answer: 16 µg/mL (≈ 44.3 µM)

Question: And the MBC ([4]; read-out: MBC 90, second MBC 90 line of the summary, Stenotrophomonas, values equal those of the CF Pseudomonas isolates)?
Answer: 16 µg/mL (≈ 44.3 µM)
